Patent publication JP2009062322A, “肝実質細胞再生促進剤” (Minophagen Pharmaceutical Co Ltd, priority 2007, dated 2009)

Test system: primary cultured hepatic parenchymal cells (初代培養肝実質細胞)
Test: Proliferation of primary cultured rat hepatic parenchymal cells: DNA synthesis (3H-thymidine incorporation) and number of nuclei
Conditions: for EC50: Rattus norvegicus; for proliferation-promoting effect: compound alone, low-density culture, 4 h, result in words

Row | Compound | EC50 | proliferation-promoting effect | proliferation-promoting effect relative to glycyrrhetinic acid (by EC50) (fold stronger than glycyrrhetinic acid (グリチルレチン酸), by EC50 value)
1 | CC1(C)[C@@H](O)CC[C@]2(C)[C@H]3C(=O)C=C4[C@@H]5C[C@@](C)(C(=O)O)CC[C@]5(C)CC[C@@]4(C)[C@]3(C)CC[C@@H]12 [グリチルレチン酸, reference compound] | 5 nM | 用量依存的に促進効果を示した | –
2 | C[C@]1(C(=O)O)CC[C@]2(C)CC[C@]3(C)C(=CC[C@@H]4[C@@]5(C)CC[C@H](O)[C@](C)(CO)[C@@H]5CC[C@]43C)[C@@H]2C1 [化合物(12)] | 4 nM | 用量依存的に促進効果を示した | –
3 | CC1(C)[C@@H](O)CC[C@]2(C)[C@H]3CC=C4[C@@H]5C[C@@](C)(C(=O)O)CC[C@]5(C)CC[C@@]4(C)[C@]3(C)CC[C@@H]12 [化合物(11), 11−デオキソグリチルレチン酸] | 0.04 nM | 用量依存的に促進効果を示した | ~100 倍 (fold)
